Tests used:
Conditions in all cases: in vivo
[1] = system: Homo sapiens; test: Terminal half life in healthy human assessed as isavuconazole level at 180.5 mg, po administered as single dose over 2 hrs following overnight fasting by high-pressure liquid chromatography coupled with tandem mass spectrometry; assay type: ADME, organism-based
[2] = system: Homo sapiens; test: Toxicity in of human with moderate liver impairment at 180.5 mg, po administered as single dose over 2 hrs following overnight fasting; assay type: organism-based
[3] = system: Homo sapiens; test: Toxicity in of human with mild liver impairment at 180.5 mg, iv administered as single dose over 2 hrs following overnight fasting; assay type: organism-based
[4] = system: Homo sapiens; test: AUC (0 to infinity) in plasma of human with mild liver impairment assessed as isavuconazole level at 180.5 mg, po administered as single dose over 2 hrs following overnight fasting by high-pressure liquid chromatography coupled with tandem mass spectrometry; assay type: ADME, organism-based; parameters: dose 180.5 mg, route oral, time infinity
[5] = system: Homo sapiens; test: Cmax in plasma of human with moderate liver impairment assessed as isavuconazole level at 180.5 mg, iv administered as single dose over 2 hrs following overnight fasting by high-pressure liquid chromatography coupled with tandem mass spectrometry by HPLC-tandem mass spectrometry; assay type: ADME, organism-based; parameters: dose 180.5 mg, route intravenous
[6] = system: Homo sapiens; test: Cmax in plasma of human with mild liver impairment assessed as isavuconazole level at 180.5 mg, po administered as single dose over 2 hrs following overnight fasting by high-pressure liquid chromatography coupled with tandem mass spectrometry by HPLC-tandem mass spectrometry; assay type: ADME, organism-based; parameters: dose 180.5 mg, route oral
[7] = system: Homo sapiens; test: Volume of distribution at steady state in of human with mild liver impairment assessed as isavuconazole level at 180.5 mg, po administered as single dose over 2 hrs following overnight fasting by high-pressure liquid chromatography coupled with tandem mass spectrometry; assay type: ADME, organism-based
[8] = system: Homo sapiens; test: Toxicity in of human with mild liver impairment at 180.5 mg, po administered as single dose over 2 hrs following overnight fasting; assay type: organism-based
[9] = system: Homo sapiens; test: AUC (0 to infinity) in healthy human plasma assessed as isavuconazole level at 180.5 mg, po administered as single dose over 2 hrs following overnight fasting by high-pressure liquid chromatography coupled with tandem mass spectrometry; assay type: ADME, organism-based; parameters: dose 180.5 mg, route oral, time infinity
[10] = system: Homo sapiens; test: AUC (0 to infinity) in healthy human plasma assessed as isavuconazole level at 180.5 mg, iv administered as single dose over 2 hrs following overnight fasting by high-pressure liquid chromatography coupled with tandem mass spectrometry; assay type: ADME, organism-based; parameters: dose 180.5 mg, time infinity, route intravenous
[11] = system: Homo sapiens; test: Terminal half life in human with moderate liver impairment assessed as isavuconazole level at 180.5 mg, iv administered as single dose over 2 hrs following overnight fasting by high-pressure liquid chromatography coupled with tandem mass spectrometry; assay type: ADME, organism-based
[12] = system: Homo sapiens; test: AUC (0 to t) in human with moderate liver impairment assessed as metabolite BAL8728 level at 180.5 mg, iv administered as single dose over 2 hrs following overnight fasting by high-pressure liquid chromatography coupled with tandem mass spectrometry; assay type: ADME, organism-based; parameters: dose 180.5 mg, time < 2 hr, route intravenous
[13] = system: Homo sapiens; test: AUC (0 to t) in human with mild liver impairment at 180.5 mg, iv administered as single dose over 2 hrs following overnight fasting by high-pressure liquid chromatography coupled with tandem mass spectrometry; assay type: ADME, organism-based; parameters: time < 2 hr, dose 180.5 mg, route intravenous
[14] = system: Homo sapiens; test: Volume of distribution at steady state in healthy human assessed as isavuconazole level at 180.5 mg, po administered as single dose over 2 hrs following overnight fasting by high-pressure liquid chromatography coupled with tandem mass spectrometry; assay type: ADME, organism-based
[15] = system: Homo sapiens; test: Oral clearance in plasma of human with moderate liver impairment assessed as isavuconazole level at 180.5 mg, po administered as single dose over 2 hrs following overnight fasting by high-pressure liquid chromatography coupled with tandem mass spectrometry; assay type: ADME, organism-based
[16] = system: Homo sapiens; test: Toxicity in healthy human at 180.5 mg, iv administered as single dose over 2 hrs following overnight fasting; assay type: organism-based
[17] = system: Homo sapiens; test: Toxicity in healthy human at 180.5 mg, po administered as single dose over 2 hrs following overnight fasting; assay type: organism-based
[18] = system: Homo sapiens; test: AUC (0 to infinity) in plasma of human with mild liver impairment assessed as isavuconazole level at 180.5 mg, iv administered as single dose over 2 hrs following overnight fasting by high-pressure liquid chromatography coupled with tandem mass spectrometry; assay type: ADME, organism-based; parameters: dose 180.5 mg, time infinity, route intravenous
[19] = system: Homo sapiens; test: AUC (0 to t) in healthy human at 180.5 mg, iv administered as single dose over 2 hrs following overnight fasting by high-pressure liquid chromatography coupled with tandem mass spectrometry; assay type: ADME, organism-based, Plasma; parameters: time < 2 hr, dose 180.5 mg, route intravenous
[20] = system: Homo sapiens; test: Tmax in healthy human plasma assessed as isavuconazole level at 180.5 mg, po administered as single dose over 2 hrs following overnight fasting by high-pressure liquid chromatography coupled with tandem mass spectrometry; assay type: ADME, organism-based
[21] = system: Homo sapiens; test: Cmax in healthy human plasma assessed as isavuconazole level at 180.5 mg, iv administered as single dose over 2 hrs following overnight fasting by high-pressure liquid chromatography coupled with tandem mass spectrometry by HPLC-tandem mass spectrometry; assay type: ADME, organism-based; parameters: dose 180.5 mg, route intravenous
[22] = system: Homo sapiens; test: AUC (0 to infinity) in plasma of human with moderate liver impairment assessed as isavuconazole level at 180.5 mg, iv administered as single dose over 2 hrs following overnight fasting by high-pressure liquid chromatography coupled with tandem mass spectrometry; assay type: ADME, organism-based; parameters: dose 180.5 mg, route intravenous, time infinity
[23] = system: Homo sapiens; test: Volume of distribution at steady state in of human with moderate liver impairment assessed as isavuconazole level at 180.5 mg, po administered as single dose over 2 hrs following overnight fasting by high-pressure liquid chromatography coupled with tandem mass spectrometry; assay type: ADME, organism-based
[24] = system: Homo sapiens; test: Cmax in healthy human plasma assessed as isavuconazole level at 180.5 mg, po administered as single dose over 2 hrs following overnight fasting by high-pressure liquid chromatography coupled with tandem mass spectrometry by HPLC-tandem mass spectrometry; assay type: ADME, organism-based; parameters: dose 180.5 mg, route oral
[25] = system: Homo sapiens; test: Volume of distribution at steady state in healthy human assessed as isavuconazole level at 180.5 mg, iv administered as single dose over 2 hrs following overnight fasting by high-pressure liquid chromatography coupled with tandem mass spectrometry; assay type: ADME, organism-based
[26] = system: Homo sapiens; test: Toxicity in of human with moderate liver impairment at 180.5 mg, iv administered as single dose over 2 hrs following overnight fasting; assay type: organism-based
[27] = system: Homo sapiens; test: Oral clearance in plasma of human with mild liver impairment assessed as isavuconazole level at 180.5 mg, po administered as single dose over 2 hrs following overnight fasting by high-pressure liquid chromatography coupled with tandem mass spectrometry; assay type: ADME, organism-based
[28] = system: Homo sapiens; test: Volume of distribution at steady state in of human with moderate liver impairment assessed as isavuconazole level at 180.5 mg, iv administered as single dose over 2 hrs following overnight fasting by high-pressure liquid chromatography coupled with tandem mass spectrometry; assay type: ADME, organism-based
[29] = system: Homo sapiens; test: Cmax in plasma of human with moderate liver impairment assessed as isavuconazole level at 180.5 mg, po administered as single dose over 2 hrs following overnight fasting by high-pressure liquid chromatography coupled with tandem mass spectrometry by HPLC-tandem mass spectrometry; assay type: ADME, organism-based; parameters: dose 180.5 mg, route oral
[30] = system: Homo sapiens; test: Terminal half life in human with mild liver impairment assessed as isavuconazole level at 180.5 mg, po administered as single dose over 2 hrs following overnight fasting by high-pressure liquid chromatography coupled with tandem mass spectrometry; assay type: ADME, organism-based
[31] = system: Homo sapiens; test: Oral clearance in healthy human plasma assessed as isavuconazole level at 180.5 mg, po administered as single dose over 2 hrs following overnight fasting by high-pressure liquid chromatography coupled with tandem mass spectrometry; assay type: ADME, organism-based
[32] = system: Homo sapiens; test: Tmax in plasma of human with moderate liver impairment assessed as isavuconazole level at 180.5 mg, po administered as single dose over 2 hrs following overnight fasting by high-pressure liquid chromatography coupled with tandem mass spectrometry; assay type: ADME, organism-based
[33] = system: Homo sapiens; test: AUC (0 to t) in human with mild liver impairment assessed as metabolite BAL8728 level at 180.5 mg, iv administered as single dose over 2 hrs following overnight fasting by high-pressure liquid chromatography coupled with tandem mass spectrometry; assay type: ADME, organism-based; parameters: dose 180.5 mg, time < 2 hr, route intravenous
[34] = system: Homo sapiens; test: Cmax in plasma of human with mild liver impairment assessed as isavuconazole level at 180.5 mg, iv administered as single dose over 2 hrs following overnight fasting by high-pressure liquid chromatography coupled with tandem mass spectrometry by HPLC-tandem mass spectrometry; assay type: ADME, organism-based; parameters: dose 180.5 mg, route intravenous
[35] = system: Homo sapiens; test: Tmax in plasma of human with mild liver impairment assessed as isavuconazole level at 180.5 mg, po administered as single dose over 2 hrs following overnight fasting by high-pressure liquid chromatography coupled with tandem mass spectrometry; assay type: ADME, organism-based
[36] = system: Homo sapiens; test: Systemic clearance in plasma of human with mild liver impairment assessed as isavuconazole level at 180.5 mg, iv administered as single dose over 2 hrs following overnight fasting by high-pressure liquid chromatography coupled with tandem mass spectrometry; assay type: ADME, organism-based
[37] = system: Homo sapiens; test: Volume of distribution at steady state in of human with mild liver impairment assessed as isavuconazole level at 180.5 mg, iv administered as single dose over 2 hrs following overnight fasting by high-pressure liquid chromatography coupled with tandem mass spectrometry; assay type: ADME, organism-based
[38] = system: Homo sapiens; test: AUC (0 to t) in human with moderate liver impairment at 180.5 mg, iv administered as single dose over 2 hrs following overnight fasting by high-pressure liquid chromatography coupled with tandem mass spectrometry; assay type: ADME, organism-based; parameters: dose 180.5 mg, time < 2 hr, route intravenous
[39] = system: Homo sapiens; test: Systemic clearance in plasma of human with moderate liver impairment assessed as isavuconazole level at 180.5 mg, iv administered as single dose over 2 hrs following overnight fasting by high-pressure liquid chromatography coupled with tandem mass spectrometry; assay type: ADME, organism-based
[40] = system: Homo sapiens; test: Terminal half life in healthy human assessed as isavuconazole level at 180.5 mg, iv administered as single dose over 2 hrs following overnight fasting by high-pressure liquid chromatography coupled with tandem mass spectrometry; assay type: ADME, organism-based
[41] = system: Homo sapiens; test: Terminal half life in human with mild liver impairment assessed as isavuconazole level at 180.5 mg, iv administered as single dose over 2 hrs following overnight fasting by high-pressure liquid chromatography coupled with tandem mass spectrometry; assay type: ADME, organism-based
[42] = system: Homo sapiens; test: Systemic clearance in healthy human plasma assessed as isavuconazole level at 180.5 mg, iv administered as single dose over 2 hrs following overnight fasting by high-pressure liquid chromatography coupled with tandem mass spectrometry; assay type: ADME, organism-based
[43] = system: Homo sapiens; test: Terminal half life in human with moderate liver impairment assessed as isavuconazole level at 180.5 mg, po administered as single dose over 2 hrs following overnight fasting by high-pressure liquid chromatography coupled with tandem mass spectrometry; assay type: ADME, organism-based
[44] = system: Homo sapiens; test: AUC (0 to infinity) in plasma of human with moderate liver impairment assessed as isavuconazole level at 180.5 mg, po administered as single dose over 2 hrs following overnight fasting by high-pressure liquid chromatography coupled with tandem mass spectrometry; assay type: ADME, organism-based; parameters: dose 180.5 mg, route oral, time infinity
[45] = system: Homo sapiens; test: AUC (0 to t) in healthy human assessed as metabolite BAL8728 level at 180.5 mg, iv administered as single dose over 2 hrs following overnight fasting by high-pressure liquid chromatography coupled with tandem mass spectrometry; assay type: ADME, organism-based, Plasma; parameters: dose 180.5 mg, time < 2 hr, route intravenous

In the case of `CNCC(=O)OCc1cccnc1N(C)C(=O)OC(C)[n+]1cnn(C[C@](O)(c2cc(F)ccc2F)[C@@H](C)c2nc(-c3ccc(C#N)cc3)cs2)c1.Cl.[Cl-]` (stereo not given in full), the “beta t1/2” value [1] was 148 h, the Activity [2] was “Non-toxic” and the Activity [3] was “Non-toxic”. For the same compound, the AUC [4] was 98 µg/h/mL, the Cmax [5] was 840 ng/mL and the Cmax [6] was 730 ng/mL. The Vdss [7] was 485 L, the Activity [8] was “Non-toxic” and the AUC [9] was 45 µg/h/mL. For the same compound, the AUC [10] was 39 µg/h/mL, the “beta t1/2” value [11] was 302 h and the AUC [12] was 0.583 µg/h/mL. The AUC [13] was 0.375 µg/h/mL, the Vdss [14] was 475 L and the CL [15] was 1.82 L/h. For the same compound, the Activity [16] was “Non-toxic”, the Activity [17] was “Non-toxic” and the AUC [18] was 72 µg/h/mL. It also gave an AUC [19] of 0.195 µg/h/mL, a Tmax [20] of 2.4 h and a Cmax [21] of 1090 ng/mL. It also gave an AUC [22] of 101 µg/h/mL, a Vdss [23] of 598 L and a Cmax [24] of 840 ng/mL. The Vdss [25] was 422 L, the Activity [26] was “Non-toxic” and the CL [27] was 1.26 L/h. The Vdss [28] was 471 L, the Cmax [29] was 470 ng/mL and the “beta t1/2” value [30] was 292 h. It also gave a CL [31] of 2.38 L/h, a Tmax [32] of 2.6 h and an AUC [33] of 0.685 µg/h/mL. It also gave a Cmax [34] of 980 ng/mL, a Tmax [35] of 2.7 h and a CL [36] of 1.93 L/h. It also gave a Vdss [37] of 492 L, an AUC [38] of 0.433 µg/h/mL and a CL [39] of 1.43 L/h. The “beta t1/2” value [40] was 123 h, the “beta t1/2” value [41] was 224 h and the CL [42] was 2.73 L/h. The “beta t1/2” value [43] was 240 h, the AUC [44] was 62 µg/h/mL and the AUC [45] was 0.606 µg/h/mL.

Source: ChEMBL document CHEMBL1687747, “Effect of mild and moderate liver disease on the pharmacokinetics of isavuconazole after intravenous and oral administration of a single dose of the prodrug BAL8557” (Antimicrob Agents Chemother, 2009)
